Results published in patent US7504517B2, “Kv1.5 potassium channel inhibitors” (Wyeth, priority 2006, dated 2009).
Structures can show the parent of a compound that is named as a salt.

Target: T1, Kv1.5 (Homo sapiens, UniProt P22460)
T1 construct: expressed in transfected cells; host or cells: HEK or LTK- cells
Test: Kv1.5 Patch Clamp EP
Assay type: cell-based
Conditions: 1.0 μM, single point; whole cell patch clamp, Kv1.5 stably over expressed in HEK or LTK- cells
Method: The external solution is standard Tyrodes solution. […] Inhibition was measured at the end of the 1 second pulses and expressed relative to controls. Initial Kv1.5 inhibition is estimated by single point determinations done at 1 μM.

T1 sequence (P22460 whole entry): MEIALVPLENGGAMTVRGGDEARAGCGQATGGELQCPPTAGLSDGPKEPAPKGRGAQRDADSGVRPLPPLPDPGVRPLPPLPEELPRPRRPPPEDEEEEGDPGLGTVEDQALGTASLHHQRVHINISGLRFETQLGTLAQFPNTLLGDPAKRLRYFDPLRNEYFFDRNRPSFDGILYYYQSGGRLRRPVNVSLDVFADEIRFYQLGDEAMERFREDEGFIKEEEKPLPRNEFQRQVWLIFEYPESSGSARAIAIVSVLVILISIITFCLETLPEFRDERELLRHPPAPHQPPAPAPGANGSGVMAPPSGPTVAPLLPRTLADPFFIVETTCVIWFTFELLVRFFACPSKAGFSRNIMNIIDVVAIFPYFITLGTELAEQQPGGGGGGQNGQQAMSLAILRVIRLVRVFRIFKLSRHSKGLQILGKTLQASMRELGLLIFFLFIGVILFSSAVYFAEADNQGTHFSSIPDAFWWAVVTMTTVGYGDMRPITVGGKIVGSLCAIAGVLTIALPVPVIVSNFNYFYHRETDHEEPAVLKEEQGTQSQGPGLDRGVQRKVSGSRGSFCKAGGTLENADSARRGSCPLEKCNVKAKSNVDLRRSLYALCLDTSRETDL

| Compound | inhibition at 1 µM | Kv1.5% inhibition @ 1.0 μM |
| --- | --- | --- |
| COc1ccc(CCN2C(=O)N(NS(=O)(=O)Cc3cccnc3)CC2c2ccc(F)cc2)cc1 (stereo not shown) [Compound 139, N-{4-(4-fluorophenyl)-3-[2-(4-methoxyphenyl)ethyl]-2-oxoimidazolidin-1-yl}-1-pyridin-3-ylmethanesulfonamide] | 14% |  |
| COc1ccc(CCN2C(=O)N(N)CC2c2ccc(OC(F)F)cc2)cc1 (stereo not shown) [Compound 5, 1-Amino-3-[2-(4-methoxyphenyl)ethyl]-4-(4-difluoromethoxyphenyl)-2-imidazolidinone 4-methylbenzenesulfonic acid salt] | 36% |  |
| CCN(CC)c1ccc(CNN2CC(c3ccc(C(C)(C)C)cc3)N(CCc3ccc(OC)cc3)C2=O)cc1 (stereo not shown) [Compound 123, 4-(4-tert-butylphenyl)-1-{[4-(diethylamino)benzyl]amino}-3-[2-(4-methoxyphenyl)ethyl]imidazolidin-2-one] | 25% |  |
| COc1ccc(CCN2C(=O)N(NCC3CC3)CC2c2ccc(C)c(C)c2)cc1 (stereo not shown) [Compound 86, 1-(Cyclopropylmethylamino)-3-[2-(4-methoxyphenyl)ethyl]-4-(3,4-dimethylphenyl)-2-imidazolidinone] | 20% |  |
| COc1ccc(CCN2C(=O)N(N)CC2c2ccc(OC(C)C)cc2)cc1 (stereo not shown) [Compound 164, 1-amino-4-(4-isopropoxyphenyl)-3-[2-(4-methoxyphenyl)ethyl]imidazolidin-2-one] | 2% |  |
| COc1ccc(CCN2C(=O)N(NS(=O)(=O)CC(=O)NCC3CC3)C[C@H]2c2ccc(OC)cc2)cc1 [Compound 136, N-(cyclopropylmethyl)-2-({(4R)-4-(4-methoxyphenyl)-3-[2-(4-methoxyphenyl)ethyl]-2-oxoimidazolidin-1-yl}sulfamoyl)acetamide] | 44% |  |
| COc1ccc(CCN2C(=O)N(NC(=O)Cc3cccnc3)CC2c2ccc(C3CC3)cc2)cc1 (stereo not shown) [Compound 122, N-{4-(4-cyclopropylphenyl)-3-[2-(4-methoxyphenyl)ethyl]-2-oxoimidazolidin-1-yl}-2-pyridin-3-ylacetamide] | 36% |  |
| COc1ccc(CCN2C(=O)N(NS(C)(=O)=O)CC2c2ccc(F)cc2)cc1 (stereo not shown) [Compound 137, N-{4-(4-fluorophenyl)-3-[2-(4-methoxyphenyl)ethyl]-2-oxoimidazolidin-1-yl}methanesulfonamide] | 4% |  |
| COc1ccc(C2CN(NS(C)(=O)=O)C(=O)N2CCCc2ccccc2)cc1 (stereo not shown) [Compound 46, 1-(Methylsulfonylamino)-3-(3-phenylpropyl)-4-(4-methoxyphenyl)-2-imidazolidinone] | 40% |  |
| COc1ccc(CCN2C(=O)N(N)CC2c2ccc(C)cc2)cc1 (stereo not shown) [Compound 159, 1-amino-3-[2-(4-methoxyphenyl)ethyl]-4-(4-methylphenyl)imidazolidin-2-one] | 4% |  |
| COc1ccc(CCN2C(=O)N(NS(C)(=O)=O)CC2c2ccc3c(c2)OCCO3)cc1OC (stereo not shown) [Compound 144, N-{4-(2,3-dihydro-1,4-benzodioxin-6-yl)-3-[2-(3,4-dimethoxyphenyl)ethyl]-2-oxoimidazolidin-1-yl}methanesulfonamide] | 16% |  |
| COc1ccc(CCN2C(=O)N(NS(=O)(=O)CC(=O)N(C)CC(=O)N(C)C)CC2c2ccc(C3CC3)cc2)cc1 (stereo not shown) [Compound 132, 2-(N-(4-(4-cyclopropylphenyl)-3-(4-methoxyphenethyl)-2-oxoimidazolidin-1-yl)sulfamoyl)-N-(2-(dimethylamino)-2-oxoethyl)-N-methylacetamide] | 3% |  |
| COc1ccc(CCN2C(=O)N(NS(C)(=O)=O)CC2C2(c3ccc(F)cc3)CC2)cc1 (stereo not shown) [Compound 165, N-{4-[1-(4-fluorophenyl)cyclopropyl]-3-[2-(4-methoxyphenyl)ethyl]-2-oxoimidazolidin-1-yl}methanesulfonamide] | 11% |  |
| COc1ccc(CCN2C(=O)N(NCc3cc[n+]([O-])cc3)CC2c2ccc(C)c(C)c2)cc1 (stereo not shown) [Compound 161, 4-(3,4-dimethylphenyl)-3-[2-(4-methoxyphenyl)ethyl]-1-{[(1-oxidopyridin-4-yl)methyl]amino}imidazolidin-2-one] | 8% |  |
| COc1ccc(CCN2C(=O)N(NCCn3ccnc3)CC2c2ccc(C(C)(C)C)cc2)cc1 (stereo not shown) [Compound 121, 4-(4-tert-butylphenyl)-1-{[2-(1H-imidazol-1-yl)ethyl]amino}-3-[2-(4-methoxyphenyl)ethyl]imidazolidin-2-one] | 7% |  |
| COc1ccc(CCN2C(=O)N(NS(=O)(=O)C(F)(F)F)CC2c2ccc(C(C)(C)C)cc2)cc1 (stereo not shown) [Compound 148, N-{4-(4-tert-butylphenyl)-3-[2-(4-methoxyphenyl)ethyl]-2-oxoimidazolidin-1-yl}-1,1,1-trifluoromethanesulfonamide] | 2% |  |
| COc1ccc(CCN2C(=O)N(NCc3ccncc3)CC2c2ccc(C(C)(C)C)cc2)cc1 (stereo not shown) [Compound 95, 1-[(Pyridin-4-ylmethyl)amino]-3-[2-(4-methoxyphenyl)ethyl]-4-(4-(tert-butyl)phenyl)-2-imidazolidinone] | 43% |  |

| Compound | inhibition at 1 µM | Kv1.5% inhibition @ 1.0 μM |
| --- | --- | --- |
| COc1ccc(CCN2C(=O)N(NS(C)(=O)=O)CC2c2ccc3c(c2)OC(F)(F)O3)cc1 (stereo not shown) [Compound 16, 1-(Methylsulfonylamino)-3-[2-(4-methoxyphenyl)ethyl]-4-(2,2-difluorobenzo-[1,3]dioxol-5-yl)-2-imidazolidinone] | 48% |  |
| COc1ccc(CCN2C(=O)N(NS(=O)(=O)CC(=O)NC3CC3)CC2c2ccc(OC)cc2)cc1 (stereo not shown) [Compound 56, 1-[[2-(Cyclopropylamino)-2-oxoethyl]sulfonylamino]-3-[2-(4-methoxyphenyl)-ethyl]-4-(4-methoxyphenyl)-2-imidazolidinone] | 39% |  |
| COc1ccc(CCN2C(=O)N(NS(C)(=O)=O)CC2c2ccc(OC(C)C)cc2)cc1 (stereo not shown) [Compound 14, 1-(Methylsulfonylamino)-3-[2-(4-methoxyphenyl)ethyl]-4-[(4-isopropyloxy)-phenyl]-2-imidazolidinone] |  | 28% |
| COc1ccc(CCN2C(=O)N(N)CC2c2ccc(OC)cc2)cc1 (stereo not shown) [Compound 175, 1-amino-4-(4-methoxyphenyl)-3-[2-(4-methoxyphenyl)ethyl]imidazolidin-2-one] | 7% |  |
| COc1ccc(CCN2C(=O)N(NS(=O)(=O)CCN3CCOCC3)CC2c2ccc3c(c2)OCCO3)cc1 (stereo not shown) [Compound 125, N-{4-(2,3-dihydro-1,4-benzodioxin-6-yl)-3-[2-(4-methoxyphenyl)ethyl]-2-oxoimidazolidin-1-yl}-2-morpholin-4-ylethanesulfonamide] | 42% |  |
| COc1ccc(CCN2C(=O)N(N3CCNCC3)CC2c2ccc(C(C)(C)C)cc2)cc1 (stereo not shown) [Compound 112, 4-(4-tert-butylphenyl)-3-[2-(4-methoxyphenyl)ethyl]-1-piperazin-1-ylimidazolidin-2-one] | 8% |  |
| COc1ccc(CCN2C(=O)N(NS(C)(=O)=O)CC2c2ccc(C(F)(F)F)cc2)cc1 (stereo not shown) [Compound 22, 1-(Methylsulfonylamino)-3-[2-(4-methoxyphenyl)ethyl]-4-(4-trifluoromethyl-phenyl)-2-imidazolidinone] | 30% |  |
| COCCOc1ccc(C2CN(N)C(=O)N2CCc2ccc(OC)cc2)cc1 (stereo not shown) [Compound 141, 1-amino-4-[4-(2-methoxyethoxy)phenyl]-3-[2-(4-methoxyphenyl)ethyl]imidazolidin-2-one] | 4% |  |
| COc1ccc(CCN2C(=O)N(NS(C)(=O)=O)CC2C2(c3ccccc3)CC2)cc1 (stereo not shown) [Compound 140, N-{3-[2-(4-methoxyphenyl)ethyl]-2-oxo-4-(1-phenylcyclopropyl)imidazolidin-1-yl}methanesulfonamide] | 6% |  |
| COc1ccc(CCN2C(=O)N(N)CC2C2(c3ccc(F)cc3)CC2)cc1 (stereo not shown) [Compound 163, 1-amino-4-[1-(4-fluorophenyl)cyclopropyl]-3-[2-(4-methoxyphenyl)ethyl]imidazolidin-2-one] | 16% |  |
| COc1ccc(CCN2C(=O)N(NS(=O)(=O)CC(=O)O)CC2c2ccc(C3CC3)cc2)cc1 (stereo not shown) [Compound 174, [[[4-(4-cyclopropylphenyl)-3-[2-(4-methoxyphenyl)ethyl]-2-oxo-imidazolidin-1-yl]amino]sulfonyl]acetic acid] | 9% |  |
| COc1ccc(CCN2C(=O)N(NS(=O)(=O)N3CCN(C)CC3)CC2c2ccc(C)c(C)c2)cc1 (stereo not shown) [Compound 166, N-{4-(3,4-dimethylphenyl)-3-[2-(4-methoxyphenyl)ethyl]-2-oxoimidazolidin-1-yl}-4-methylpiperazine-1-sulfonamide] | 41% |  |
| CC(C)(C)c1ccc(C2CN(NS(C)(=O)=O)C(=O)N2CCc2ccc(OCCN3CCOCC3)cc2)cc1 (stereo not shown) [Compound 169, N-[4-(4-tert-butylphenyl)-3-{2-[4-(2-morpholin-4-ylethoxy)phenyl]ethyl}-2-oxoimidazolidin-1-yl]methanesulfonamide] | 16% |  |
| COc1ccc(CCN2C(=O)N(NCc3nccn3C)CC2c2ccc(C)c(C)c2)cc1 (stereo not shown) [Compound 138, 4-(3,4-dimethylphenyl)-3-[2-(4-methoxyphenyl)ethyl]-1-{[(1-methyl-1H-imidazol-2-yl)methyl]amino}imidazolidin-2-one] | 7% |  |
| COc1ccc(CCN2C(=O)N(NS(=O)(=O)CC#N)CC2c2ccc(OC)cc2)cc1 (stereo not shown) [Compound 41, 1-(Cyanomethylsulfonylamino)-3-[2-(4-methoxyphenyl)ethyl]-4-[(4-methoxy)-phenyl]-2-imidazolidinone] | 42% |  |
| COc1ccc(CCN2C(=O)N(NS(=O)(=O)CS(C)(=O)=O)CC2c2ccc(OC)cc2)cc1 (stereo not shown) [Compound 153, N-{4-(4-methoxyphenyl)-3-[2-(4-methoxyphenyl)ethyl]-2-oxoimidazolidin-1-yl}-1-(methylsulfonyl)methanesulfonamide] | 12% |  |
| COc1ccc(CCN2C(=O)N(NS(=O)(=O)CC(N)=O)CC2c2ccc(OC)cc2)cc1 (stereo not shown) [Compound 115, 2-({4-(4-methoxyphenyl)-3-[2-(4-methoxyphenyl)ethyl]-2-oxoimidazolidin-1-yl}sulfamoyl)acetamide] | 5% |  |
